Test results: PubChem BioAssay AID248 (DTP/NCI, 2004)
“And” between values parts separate entries of the source, which are not always exact repeats. Equal values may be shown once. Inconclusive results and toxic doses are left out. Rule as the data show it: active = T/C of 150% or more; inactive = T/C below 125%.

System: L1210 leukemia ip in BDF1 mice, survival T/C
Assay: NCI In Vivo Anticancer Drug Screen. Data for tumor model L1210 Leukemia (intraperitoneal) in B6D2F1 (BDF1) mice
Settings: endpoint: mean survival time, higher = longer survival
Procedure, shortened: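 In this screen, tumor-bearing mice given compound are compared to those given vehicle, and their survival values are reported as a treated-to-control quotient.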

[1] = dose: 100.0 mg/kg/injection, schedule: Q01DX009 (ip), vehicle: Klucel (hydroxypropylcellulose) (HPC)
[2] = dose: 100.0 mg/kg/injection, schedule: Q04DX003 (ip), vehicle: Klucel (hydroxypropylcellulose) (HPC)
[3] = dose: 200.0 mg/kg/injection, schedule: Q01DX009 (ip), vehicle: Klucel (hydroxypropylcellulose) (HPC)
[4] = dose: 200.0 mg/kg/injection, schedule: Q04DX003 (ip), vehicle: Klucel (hydroxypropylcellulose) (HPC)
[5] = dose: 400.0 mg/kg/injection, schedule: Q01DX009 (ip), vehicle: Klucel (hydroxypropylcellulose) (HPC)
[6] = dose: 400.0 mg/kg/injection, schedule: Q04DX003 (ip), vehicle: Klucel (hydroxypropylcellulose) (HPC)
[7] = dose: 100.0 mg/kg/injection, schedule: Q04DX003 (ip), vehicle: saline with Tween-80
[8] = dose: 200.0 mg/kg/injection, schedule: Q04DX003 (ip), vehicle: saline with Tween-80
[9] = dose: 100.0 mg/kg/injection, schedule: Q01DX001 (ip), vehicle: saline
[10] = dose: 200.0 mg/kg/injection, schedule: Q01DX001 (ip), vehicle: saline
[11] = dose: 400.0 mg/kg/injection, schedule: Q01DX001 (ip), vehicle: saline
[12] = dose: 400.0 mg/kg/injection, schedule: Q04DX003 (ip), vehicle: saline with Tween-80
[13] = dose: 100.0 mg/kg/injection, schedule: Q01DX001 (ip), vehicle: carboxymethylcellulose (CMC)
[14] = dose: 200.0 mg/kg/injection, schedule: Q01DX001 (ip), vehicle: carboxymethylcellulose (CMC)
[15] = dose: 50.0 mg/kg/injection, schedule: Q01DX009 (ip), vehicle: saline with Tween-80
[16] = dose: 100.0 mg/kg/injection, schedule: Q01DX009 (ip), vehicle: saline with Tween-80
[17] = dose: 200.0 mg/kg/injection, schedule: Q01DX009 (ip), vehicle: saline with Tween-80
[18] = dose: 400.0 mg/kg/injection, schedule: Q01DX009 (ip), vehicle: saline with Tween-80
[19] = dose: 100.0 mg/kg/injection, schedule: Q01DX001 (ip), vehicle: saline with Tween-80
[20] = dose: 100.0 mg/kg/injection, schedule: Q04DX002 (ip), vehicle: saline with Tween-80
[21] = dose: 200.0 mg/kg/injection, schedule: Q01DX001 (ip), vehicle: saline with Tween-80
[22] = dose: 200.0 mg/kg/injection, schedule: Q04DX002 (ip), vehicle: saline with Tween-80
[23] = dose: 400.0 mg/kg/injection, schedule: Q01DX001 (ip), vehicle: saline with Tween-80
[24] = dose: 400.0 mg/kg/injection, schedule: Q04DX002 (ip), vehicle: saline with Tween-80
[25] = dose: 100.0 mg/kg/injection, schedule: Q01DX001 (ip), vehicle: Klucel (hydroxypropylcellulose) (HPC)
[26] = dose: 200.0 mg/kg/injection, schedule: Q01DX001 (ip), vehicle: Klucel (hydroxypropylcellulose) (HPC)
[27] = dose: 400.0 mg/kg/injection, schedule: Q01DX001 (ip), vehicle: Klucel (hydroxypropylcellulose) (HPC)

Measured: T/C

CC(=O)Nc1ccc(/C=C/c2ccc([N+](=O)[O-])cc2)cc1
inactive: [1] 100 % of control | dose: 100.0 mg/kg/injection, schedule: Q04DX002 (ip), vehicle: Klucel (hydroxypropylcellulose) (HPC) 96 % of control | [2] 100 % of control | [3] 95 % of control | dose: 200.0 mg/kg/injection, schedule: Q04DX002 (ip), vehicle: Klucel (hydroxypropylcellulose) (HPC) 93 % of control | [4] 98 % of control | [5] 92 % of control | dose: 400.0 mg/kg/injection, schedule: Q04DX002 (ip), vehicle: Klucel (hydroxypropylcellulose) (HPC) 104 % of control | [6] 107 % of control

CCCCCCCCCCCCN1CCCC(O)C1 (configuration not stated)
inactive: [7] 93 % of control | [8] 88 % of control

N#CCCCc1ccccc1
inactive: dose: 50.0 mg/kg/injection, schedule: Q01DX009 (ip), vehicle: Klucel (hydroxypropylcellulose) (HPC) 96 % of control | [1] 104 % of control | [3] 112 % of control

O=C1NCCCC1c1nc2cccc3c2n1CCC3 (configuration not stated)
inactive: [2] 94 % of control | [4] 108 % of control | [6] 97 % of control

N#Cc1cn(-c2cccc(Cl)c2)c2ncccc12
inactive: dose: 25.0 mg/kg/injection, schedule: Q01DX001 (ip), vehicle: saline 103 % of control | dose: 50.0 mg/kg/injection, schedule: Q01DX001 (ip), vehicle: saline 100 % of control | [9] 103 % of control | [10] 87 % of control | [11] 91 % of control

c1ccc(B2Nc3ccccc3-c3ccccc32)cc1
inactive: [7] 98 % of control | [8] 96 % of control | [12] 98 % of control

COc1ccc(-c2ccc(OC)cc2[N+](=O)[O-])c([N+](=O)[O-])c1
inactive: [13] 100 % of control | [14] 100 % of control | dose: 400.0 mg/kg/injection, schedule: Q01DX001 (ip), vehicle: carboxymethylcellulose (CMC) 102 % of control

O/N=C\c1ccc(/C=N/O)cc1
inactive: [15] 97 % of control | [16] 93 % of control | [17] 97 % of control

CCOC(=O)CCC(NC(=O)c1ccc(N(C)S(=O)(=O)c2ccc(C)cc2)c2ccccc12)C(=O)OCC (configuration not stated)
inactive: [16] 108 % of control | [7] 97 % of control | [17] 94 % of control | [8] 100 % of control | [18] 92 % of control | [12] 100 % of control

Cc1ccccc1N1CCN(c2ccccc2C)C1=C1N(c2ccccc2C)CCN1c1ccccc1C
inactive: dose: 100.0 mg/kg/injection, schedule: Q04DX002 (ip), vehicle: DMSO 103 % of control | dose: 200.0 mg/kg/injection, schedule: Q04DX002 (ip), vehicle: DMSO 98 % of control

CCCCCOC(=O)C(C(=O)OCCCCC)(C(=O)OCCCCC)C(=O)OCCCCC
inactive: [9] 100 % of control | [10] 104 % of control | [11] 95 % of control

CCOC(=O)/C(C(=O)c1ccccc1)=C(\OC(=O)c1ccccc1)c1ccccc1
inactive: dose: 50.0 mg/kg/injection, schedule: Q01DX001 (ip), vehicle: carboxymethylcellulose (CMC) 96 % of control | [13] 102 % of control | [14] 91 % of control

O=[N+]([O-])c1ccc(OCCBr)c(Cl)c1
inactive: [2] 92 % of control | [4] 97 % of control | [6] 96 % of control

NS(=O)(=O)c1ccc(NC(=O)Nc2ccccc2C(F)(F)F)cc1
inactive: [1] 100 % of control | [3] 89 % of control | [5] 93 % of control

CCCCCCCCCCCCCCCC(=O)Nc1ccc(C(C)=O)cc1
inactive: [2] 91 % of control | [4] 88 % of control | [6] 95 % of control

COc1ccc(Cl)cc1NC(=O)C(Cl)(Cl)Cl
inactive: dose: 50.0 mg/kg/injection, schedule: Q01DX001 (ip), vehicle: saline with Tween-80 102 % of control | [19] 88 % of control and 92 % of control | [16] 94 % of control | [20] 100 % of control and 101 % of control | [21] 91 % of control | [17] 95 % of control and 89 % of control | [22] 93 % of control and 98 % of control | [23] 89 % of control | [24] 93 % of control and 94 % of control

CC(C)=NOC(N)=O
inactive: dose: 50.0 mg/kg/injection, schedule: Q01DX Z (ip), vehicle: water 108 % of control | dose: 100.0 mg/kg/injection, schedule: Q01DX Z (ip), vehicle: water 100 % of control | dose: 200.0 mg/kg/injection, schedule: Q01DX Z (ip), vehicle: water 100 % of control | dose: 400.0 mg/kg/injection, schedule: Q01DX Z (ip), vehicle: water 100 % of control

Cc1nc(N)c2c(ncn2C2OC(CO)C(O)C2O)n1 (configuration not stated)
inactive: [9] 100 % of control | [10] 108 % of control | [11] 105 % of control

Cc1c(Cl)cccc1NC(=O)/C=C/C(=O)O
inactive: [16] 98 % of control | [7] 95 % of control | [17] 94 % of control | [8] 93 % of control | [12] 103 % of control

CC(=O)Oc1cccc(OC(=O)Nc2cccc(Cl)c2C)c1
inactive: [19] 93 % of control | [16] 104 % of control and 107 % of control | [20] 94 % of control and 104 % of control | [7] 88 % of control | [21] 100 % of control | [17] 96 % of control and 90 % of control | [22] 94 % of control and 101 % of control | [8] 86 % of control | [23] 93 % of control | [18] 93 % of control and 100 % of control | [24] 97 % of control and 104 % of control | [12] 89 % of control

CC(C)CNC(=O)Nc1ccccc1C(F)(F)F
inactive: [7] 95 % of control | [8] 97 % of control | [12] 97 % of control

Cc1cc(C)c([As](=O)(O)O)c([N+](=O)[O-])c1
inactive: [9] 90 % of control | [10] 101 % of control | [11] 104 % of control

O=C1CCc2c(Cl)sc(Cl)c21
inactive: [15] 91 % of control | [16] 88 % of control | [17] 96 % of control

CCCOC(C(=O)OC1CCN(C)CC1)(c1ccccc1)c1ccccc1
inactive: dose: 12.5 mg/kg/injection, schedule: Q01DX009 (ip), vehicle: saline 98 % of control | dose: 25.0 mg/kg/injection, schedule: Q01DX009 (ip), vehicle: saline 102 % of control | dose: 50.0 mg/kg/injection, schedule: Q01DX009 (ip), vehicle: saline 94 % of control

O=C(Nc1ccc([N+](=O)[O-])cc1)c1cc(N2CCOCC2)ccn1
inactive: [9] 89 % of control and 91 % of control | [10] 94 % of control and 95 % of control | [11] 95 % of control and 91 % of control

CC(=O)OCC1OCOC2C(C(N)=O)OCOC12 (configuration not stated)
inactive: [9] 103 % of control | [10] 103 % of control

O=[N+]([O-])c1cc(S(=O)(=O)c2ccc(Nc3ccccc3)c([N+](=O)[O-])c2)ccc1Nc1ccccc1
inactive: dose: 100.0 mg/kg/injection, schedule: Q04DX002 (ip), vehicle: gum acacia 93 % of control | dose: 200.0 mg/kg/injection, schedule: Q04DX002 (ip), vehicle: gum acacia 103 % of control | dose: 400.0 mg/kg/injection, schedule: Q04DX002 (ip), vehicle: gum acacia 97 % of control

O=C(Oc1ccccc1Cl)c1ccc(Cl)c(Cl)c1
inactive: [1] 98 % of control | [2] 95 % of control | [3] 93 % of control | [4] 90 % of control | [5] 90 % of control | [6] 90 % of control

O=[N+]([O-])c1ccc(/C=N/N(Cc2ccccc2)c2ccccc2)s1
inactive: [7] 87 % of control | [12] 89 % of control

CC1=CC2(C)Cc3cc(C)cc(C)c3S(=O)(=O)C2C(C(=O)O)=C1 (configuration not stated)
inactive: dose: 50.0 mg/kg/injection, schedule: Q01DX001 (ip), vehicle: Klucel (hydroxypropylcellulose) (HPC) 102 % of control | [25] 101 % of control | [26] 98 % of control | [27] 96 % of control

Nc1ccc(Cl)cc1C(=O)O
inactive: [25] 90 % of control | [26] 101 % of control | [27] 90 % of control
